# In PMC7497626, “Ruthenium-Mediated ^18F-Fluorination and Preclinical Evaluation of a New CB1 Receptor Imaging Agent [^18F]FPATPP” (ACS Chemical Neuroscience, 2020):
# Read-outs that look alike come from different tables or passages of the source.
# Experiments:
# [1] = Radiometabolite analysis with [^18F]4 in plasma and cortex; type: in vivo, mouse; conditions: 120 min p.i., n = 5
# Description: The 2 month old animals (n = 11, used only for ex vivo studies) were used for metabolite analysis. Plasma and brain samples were collected at 30 (n = 4), 60 (n = 2), and 120 min (n = 5) p.i. Plasma samples were treated with MeCN and centrifuged to remove the proteins from the solution. Brain tissue samples were treated with the 40/60 (v/v) 1% TFA (aq)/MeCN solution and then centrifuged. The supernatants were applied to HPTLC silica gel 60 RP-18 plates (Art. 1.05914.0001, Merck, Darmstadt, Germany), and the plates were developed in 40/60 (v/v) 1% TFA (aq)/ MeCN. After drying, the TLC plates were exposed to an imaging plate for approximately 4 h and the imaging plate was scanned with a Fuji Analyzer BAS5000. The amount of [^18F]4 and its radioactive metabolites were analyzed with the Aida 4 program, and the curves were fitted with GraphPad Prism 6.0 (GraphPad Software, San Diego, California) using a double exponential decay equation.
# mouse cerebral CB1Rs [2] = molecular target: T1, mouse cerebral CB1Rs (Mus musculus, UniProt P47746); assay: Ex vivo brain autoradiography with [^18F]4, region-to-thalamus ratios; type: in vivo; conditions: 120 min post injection
# T1 construct: from tissue
# Description: For autoradiography, brains were further frozen and cut into 20 μm coronal cryosections for digital autoradiography, and the slices were exposed on an imaging plate (BAS-TR2025, Fuji Photo Film Co.) for approximately 2 half-lives and scanned with a Fuji BAS5000 phosphorimager (FUJIFILM Life Science, Stamford, Connecticut). Digital autoradiographic images were analyzed for count densities with the Aida 4 program (Raytest Isotopenmessgeräte GmbH, Straubenhardt, Germany). For brain slices, regions of interest (ROIs) were drawn over the parietotemporal cortex, striatum, frontal cortex, hippocampus, cerebellar gray matter, and thalamus. The autoradiography was quantified as ratios of the different ROIs relative to the thalamus, which was used as the reference region.
# (§1) The specificity of [^18F]4 on mouse cerebral CB1Rs was examined in a 120 min in vivo study, and then, the same mice were used for ex vivo biodistribution and brain autoradiography studies. […] Control mice (n = 3, 1 female) were the given vehicle (90 μL, 10% EtOH in Kleptose β-cyclodextrin). […] Mice were sacrificed 120 min after iv injection of [^18F]4, and the ^18F-radioactivity distribution differences between pretreated and control mice were examined with in vivo PET imaging, ex vivo autoradiography, and 2480 Wizard Gamma Counter, and the data were analyzed as described in the previous sections.
# mouse cerebral CB1Rs [3] = molecular target: T1, mouse cerebral CB1Rs; assay: In vivo dynamic PET/CT imaging with [^18F]4, with and without rimonabant blocking
# Description: Dynamic PET scans were performed for 5 month old mice with an Inveon Multimodality PET/CT scanner (Siemens Medical Solutions USA, Knoxville, Tennessee). Mice were anesthetized with 2.5% isoflurane/oxygen gas, and body temperature was maintained with a heating pad and a bubble-wrap cover. CT transmission scans were performed to correct for attenuation. PET scans were initiated in parallel with an intravenous (iv) bolus injection of [^18F]4 to the mouse tail vein (4–5 month old, n = 6, 2 females; injected radioactivity 4.0 ± 0.4 MBq; injected mass 56 ± 25 ng, 1.7 ± 0.7 μg/kg).
# Dynamic emission scans were acquired for 120 min in 3D list mode, with an energy window of 350–650 keV. Scanning times were 120 min (54 frames 30 × 10 s, 15 × 60 s, 4 × 300 s, 2 × 600 s, 3 × 1200 s). The list mode data were stored in 3D sinograms. Data were reconstructed with OSEM3D/MAP software (2 OSEM3D iterations and 18 MAP iterations). The PET/CT images were preprocessed in Matlab R2017a (The MathWorks, Natick, Massachusetts) with an in-house semiautomated pipeline for preclinical images that uses SPM12 (Wellcome Department of Cognitive Neurology, London, UK) preprocessing functionalities and analysis routines. Images were first cropped to a bounding box containing the heads, and individual PET images were coregistered through a rigid-body transformation to their corresponding CT scan. Subjects were spatially normalized through a two-step registration (a rigid followed by an affine transformation) of each subject’s CT to a template CT that was previously constructed as an average of several subjects and was aligned with an atlas T2-weighted MRI template. The combination of transformations was then applied to the PET images, which were also resampled to a voxel size of 0.2 × 0.2 × 0.2 mm^3 (trilinear interpolation), matching the anatomical atlas dimensions.
# Volume of interest (VOI) analysis of the whole brain, neocortex, and hippocampus was performed on each subject by averaging the signal inside a slightly modified version of the Ma et al.[40] atlas delineated VOIs, and data were obtained as standardized uptake values (SUVs). SUVs were calculated as follows: SUV = tissue activity concentration (Bq/mL)/(injected dose (Bq)/body weight (g)); it was assumed that 1 mL of tissue equals 1 g. Tissue activity and dose were decay corrected to the same time point.
# as §1
# [4] = Stability / shelf life of the formulated tracer towards radiolysis; type: physicochemical; conditions: studied up to 5 h after the EOS, n = 2
# Description: For tracer production for preclinical evaluation, larger amounts of initial [^18F]fluoride were used and full purification and formulation processes were performed. For the radiofluorination, the SPE method with a 30 min reaction at 160 °C was utilized (conditions as in bar 2, Figure 2B). Elution efficiency was 93 ± 2% (n = 5). Total RCY was 16.7 ± 5.7% (decay-corrected to end of bombardment, d.c. to EOB, n = 5), molar activity (Am) > 95 GBq/μmol (d.c. to end of synthesis, EOS, n = 1) and radiochemical purity (RCP) 99.9 ± 0.1% at EOS (n = 5). Activity yield was 1.0 ± 0.4 GBq (n = 5) at EOS. Synthesis time was 87 ± 5 min (n = 5). The amount of ruthenium in the formulated product was 7.8 ± 1.8 μg/mL.
# For PET tracers for clinical use, a generally acknowledged limit for RCP is 95%. […] Lahdenpohja et al. reported that the RCP of [^18F]FMPEP-d2 at EOS varied between 95.5–100% and was a function of radioactivity concentration, which was 20–200 MBq/mL (n > 150) in a 10% ethanolic solution, and the RCP was declined as a function of time due to radiolytic decomposition.[32] The shelf life of the [^18F]FMPEP-d2 was determined to be 120 min.[32] For [^18F]4 formulated in a similar ethanolic solution, the RCP at EOS was 99.9% when the RAC was 200–450 MBq/mL and the shelf life was determined to be at least 300 min, with no significant development of radioactive impurities. […]
# [5] = Ex vivo biodistribution with [^18F]4; type: in vivo, mouse
# Description: All in vivo animals (n = 6, 2 females) and additional 2 month old mice (n = 11, males, injected radioactivity 7.0 ± 3.0 MBq; injected mass 160 ± 60 ng, 6.2 ± 2.6 μg/kg) were used for ex vivo studies to examine the biodistribution and metabolism of [^18F]4. Thus, the injected dose and injected mass to all the animals used (n = 17) were 5.9 ± 2.8 MBq and 120 ± 70 ng, 4.6 ± 3.0 μg/kg, respectively. After iv injection of [^18F]4, mice were sacrificed in deep anesthesia of 4.0% isoflurane with cardiac puncture at 30 (n = 4), 60 (n = 2), and 120 min (in vivo animals, n = 6 and 2 month old mice n = 5). Organs were immediately dissected, weighed, and measured for ^18F-radioactivity in a 2480 Wizard Gamma Counter (Wallac PerkinElmer, Turku, Finland).
# as §1
# [6] = set-up: method as in PMID 29909177; conditions: 180 min p.i.; cited from earlier work
# CB1R [7] = test system: CB1R; set-up: method as in PMID 29909177; conditions: mice, cited from earlier work
# CB1R [8] = conditions: cited from earlier work
# CB1R [9] = test system: CB1R; set-up: method as in doi:10.1016/B978-0-12-417041-4.00002-3; conditions: cited from earlier work
# [10] = set-up: method as in PMID 32374481; conditions: 10% ethanolic solution, radiolytic decomposition; cited from earlier work
# [11] = Ex vivo biodistribution with [^18F]FMPEP-d2; type: in vivo, mouse
# Description: After iv injection of [^18F]FMPEP-d2 to the mouse tail vein, the mice were sacrificed at the following time points: 30 min (3–4 month old, n = 3, males; injected radioactivity 1.3 ± 0.3 MBq; injected mass 1.5 ± 0.5 ng), 60 min (3–4 months old, n = 4, males; injected radioactivity 1.2 ± 0.8 MBq; injected mass 1.3 ± 1.0 ng), and 120 min (1.5–6 month old, n = 12, 5 females; injected radioactivity 2.6 ± 0.8 MBq; injected mass 3.1 ± 1.1 ng). Mice were sacrificed in deep anesthesia of 4.0% isoflurane with cardiac puncture. Organs were operated in the similar manner as in the biodistribution study with [^18F]4.
# CB1R [12] = test system: CB1R; set-up: method as in PMID 22699528; conditions: cited from earlier work
# [13] = 2 mg/kg rimonabant iv 10 min before tracer, 120 min after injection
# T1 sequence (P47746 whole entry): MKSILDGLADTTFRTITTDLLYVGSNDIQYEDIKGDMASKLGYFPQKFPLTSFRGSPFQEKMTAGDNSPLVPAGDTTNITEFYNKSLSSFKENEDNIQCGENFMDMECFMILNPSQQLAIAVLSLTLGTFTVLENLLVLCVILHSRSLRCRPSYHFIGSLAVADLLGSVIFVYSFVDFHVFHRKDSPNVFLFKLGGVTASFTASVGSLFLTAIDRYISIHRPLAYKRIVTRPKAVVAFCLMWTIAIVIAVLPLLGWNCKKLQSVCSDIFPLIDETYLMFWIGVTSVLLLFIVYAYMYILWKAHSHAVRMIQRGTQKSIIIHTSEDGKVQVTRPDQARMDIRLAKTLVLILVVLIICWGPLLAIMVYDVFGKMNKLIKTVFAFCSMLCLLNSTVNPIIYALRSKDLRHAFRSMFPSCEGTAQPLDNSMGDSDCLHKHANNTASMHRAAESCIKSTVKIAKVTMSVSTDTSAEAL
smiles,measurement,setting,value
"C[C@@H](N[C@@H]1C[C@H](c2cccc([18F])c2)N(c2ccc(C(F)(F)F)cc2)C1=O)c1ccccc1 [[^18F]4, (3R,5R)-5-(3-[^18F]fluorophenyl)-3-(((R)-1-phenylethyl)amino)-1-(4-(trifluoromethyl)phenyl)pyrrolidin-2-one]","Residual tracer in plasma, of the total ^18F-radioactivity",[1],approximately 21.3 ± 3.5%
same,"Residual tracer in the cortex, of the total ^18F-radioactivity",[1],75.0 ± 4.3%
same,Region-to-thalamus ratios in mice pretreated with rimonabant,mouse cerebral CB1Rs [2]; 2 mg/kg rimonabant pretreatment,~1
same,Ratio cortex and cerebellar gray matter to thalamus,mouse cerebral CB1Rs [2]; without blocking,3.7
same,Ratio frontal cortex to thalamus,mouse cerebral CB1Rs [2]; without blocking,2.5
same,Ratio globus pallidus to thalamus,mouse cerebral CB1Rs [2]; without blocking,4.9
same,Ratio parietotemporal cortex to thalamus,mouse cerebral CB1Rs [2]; without blocking,2.3
same,Ratio striatum to thalamus,mouse cerebral CB1Rs [2]; without blocking,2.8
same,Ratio whole hippocampus to thalamus,mouse cerebral CB1Rs [2]; without blocking,2.6
same,"Reduction of binding by rimonabant pretreatment, hippocampus",mouse cerebral CB1Rs [3]; [13],62%
same,"Reduction of binding by rimonabant pretreatment, neocortex",mouse cerebral CB1Rs [3]; [13],59%
same,"Reduction of binding by rimonabant pretreatment, whole brain",mouse cerebral CB1Rs [3]; [13],58%
same,Washout,mouse cerebral CB1Rs [3]; wild-type mice,washout phase began immediately after the peak uptake
same,SUV at 120 min p.i. (after washout),"mouse cerebral CB1Rs [3]; wild-type mice, 120 min p.i.",1.3
same,"Peak standardized uptake value (SUV), hippocampus","mouse cerebral CB1Rs [3]; wild-type mice, baseline",2.14
same,"Peak standardized uptake value (SUV), neocortex","mouse cerebral CB1Rs [3]; wild-type mice, baseline",1.80
same,"Peak standardized uptake value (SUV), whole brain","mouse cerebral CB1Rs [3]; wild-type mice, baseline",1.92
same,Time of maximum tracer uptake after injection,"mouse cerebral CB1Rs [3]; wild-type mice, brain PET",30 min
same,Stability of the formulated tracer after EOS,[4],no significant decomposition was observed
same,Cortex uptake,[5]; 30 min p.i.,11.5 ± 3.7 %ID/g
same,Liver uptake,[5]; 30 min p.i.,12.1 ± 0.7 %ID/g
same,Whole brain uptake,[5]; 30 min p.i.,9.8 ± 3.2 %ID/g
same,"Bone uptake (skull bone, parietal bone)",[5]; 120 min p.i.,0.4 ± 0.1 %ID/g
same,Cortex uptake,[5]; 120 min p.i.,5.1 ± 1.17 % ID/g
same,Liver uptake,[5]; 120 min p.i.,8.2 ± 1.6 %ID/g
same,Whole brain uptake,[5]; 120 min p.i.,4.9 ± 0.9 %ID/g
same,Cortex uptake in rimonabant treated mice,"[5]; 120 min p.i., 2 mg/kg rimonabant pretreatment",1.8 ± 0.2 %ID/g
"C[C@@H](N[C@@H]1C[C@H](c2cccc(OC[18F])c2)N(c2ccc(C(F)(F)F)cc2)C1=O)c1ccccc1 [[^18F]FMPEP-d2, (3R,5R)-5-(3-([^18F]fluoromethoxy)phenyl)-3-(((R)-1-phenylethyl)amino)-1-(4-(trifluoromethyl)phenyl)pyrrolidin-2-one]",Amount of residual tracer,[6],86%
same,Washout,CB1R [7]; up to 90 min p.i.,essentially no washout was observed
same,Time of maximum tracer uptake,CB1R [7],30 min
same,Whole brain SUV,CB1R [7],1.5
same,Washout,CB1R [8]; human studies,slow washout
same,CB1R vs CB2R selectivity,CB1R [9],3580
same,Kb,"CB1R [9]; for CB1R, read-out: In vitro potency (Kb)",0.187 nM
same,Shelf life,[10],120 min
same,Whole brain ^18F-radioactivity uptake,"[11]; 30 min p.i., healthy mice",5.6 ± 1.3 %ID/g
same,Skull bone (parietal bone) radioactivity uptake,"[11]; 120 min p.i., healthy mice",2.7 ± 0.5 %ID/g
same,Defluorination compared to [^18F]4,"[11]; at 120 min, from skull bone uptake",over 6 fold
"Cc1ccc(OC(C)(C)C(=O)N[C@@H](C)[C@@H](Cc2ccc(OCC[18F])cc2)c2cccc(C#N)c2)nc1 [[^18F]MK-9470, N-{(1S,2S)-2-(3-cyanophenyl)-3-[4-(2-[^18F]fluoroethoxy)phenyl]-1-methylpropyl}-2-methyl-2-[(5-methylpyridin-2-yl)oxy]propanamide]",Washout,"CB1R [8]; human, even after 6 h",no washout was observed
same,Time of maximum tracer uptake post injection,CB1R [12]; rat,300 min
same,Washout,"CB1R [12]; rats, even after 600 min",no washout was observed
